Among the data in ChEMBL document CHEMBL1158779, “Sulfur-containing polybromoindoles from the Formosan red alga Laurencia brongniartii” (J Nat Prod, 2005) are Activity values, retold here.

One test has as its system P388. Put plainly: Cytotoxicity against mouse P388 cells. It counts as functional, cell-based.
The next test relates to HT-29. Nature of the test: Cytotoxicity against human HT-29 cells. It counts as functional, cell-based.

Active and inactive are the calls of the source. No cut-off for these calls is given here.

On to `C[S+]([O-])c1[nH]c2cc(Br)cc(Br)c2c1-c1c([S+](C)[O-])[nH]c2cc(Br)cc(Br)c12` (centres undefined), for which, in the test with P388, the result was Active. Also, the result in the test with HT-29 was inactive.
On to `CSc1[nH]c2cc(Br)c(Br)c(Br)c2c1SC`, for which the result with P388 and in the test with HT-29 was inactive.
Take `C[S+]([O-])c1[nH]c2cc(Br)cc(Br)c2c1[S+](C)[O-]` (centres undefined): the result in the test on P388 and in the test on HT-29 was inactive.
For `CSc1c(Br)[nH]c2cc(Br)c(Br)c(Br)c12`, the outcome with P388 and in the test with HT-29 was inactive.
As for `CSc1c([S+](C)[O-])[nH]c2cc(Br)cc(Br)c12` (centres undefined), the outcome in the test on P388 and in the test with HT-29 was inactive.
Take `CSc1[nH]c2cc(Br)cc(Br)c2c1-c1c(SC)[nH]c2cc(Br)cc(Br)c12`: the result with P388 and in the test on HT-29 was inactive.
Take `C[S+]([O-])c1c(Br)[nH]c2cc(Br)cc(Br)c12` (centres undefined): the outcome in the test with P388 and in the test on HT-29 was inactive.
With `CSc1c([S+](C)[O-])[nH]c2cc(Br)c(Br)c(Br)c12` (centres undefined), the result in the test on P388 and in the test on HT-29 was inactive.
On to `CSc1cc2c(Br)cc(Br)cc2[nH]1`, for which the outcome in the test on P388 and in the test with HT-29 was inactive.
As to `CSc1[nH]c2cc(Br)cc(Br)c2c1SC`, the result with P388 and in the test with HT-29 was inactive.
Take `CSc1c(Br)[nH]c2cc(Br)cc(Br)c12`: the result in the test on P388 and in the test with HT-29 was inactive.
Regarding `CSc1[nH]c2cc(Br)cc(Br)c2c1-c1c([S+](C)[O-])[nH]c2cc(Br)cc(Br)c12` (centres undefined), the result in the test on P388 and in the test on HT-29 was Active.
